Test results: ChEMBL document CHEMBL1123015, “Thiol-containing androgens as suicide substrates of aromatase” (J Med Chem, 1985)

Molecular target: T1, Aromatase (Homo sapiens, UniProt P11511)
T1 sequence (P11511 whole entry): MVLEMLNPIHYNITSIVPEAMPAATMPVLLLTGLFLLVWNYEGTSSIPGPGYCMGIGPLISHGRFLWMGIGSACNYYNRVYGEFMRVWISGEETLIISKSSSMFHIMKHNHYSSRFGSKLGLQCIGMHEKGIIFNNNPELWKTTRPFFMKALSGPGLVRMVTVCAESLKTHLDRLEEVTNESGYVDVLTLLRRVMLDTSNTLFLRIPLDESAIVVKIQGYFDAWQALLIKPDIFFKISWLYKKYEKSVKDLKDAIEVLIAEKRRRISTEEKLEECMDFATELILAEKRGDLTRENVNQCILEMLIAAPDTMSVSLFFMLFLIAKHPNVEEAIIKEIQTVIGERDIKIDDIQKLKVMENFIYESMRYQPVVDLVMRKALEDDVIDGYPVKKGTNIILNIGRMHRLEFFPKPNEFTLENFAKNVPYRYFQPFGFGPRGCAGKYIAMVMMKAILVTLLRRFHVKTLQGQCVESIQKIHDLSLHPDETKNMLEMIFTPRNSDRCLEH
Assay: Percentage aromatase activity remaining in human placental microsomes with NADPH
Type: functional, Placenta

**Q.** How did the Activity turn out when `C[C@]12CC[C@H]3[C@@H](CCC4=CC(=O)CC[C@@]43CS)[C@@H]1CCC2=O` was run?
**A.** Its Activity is 94%.
